Assay [1] deals with ABCD2. The assay is described as follows: Western blot of ABCD2 expression in ALD-KO mouse brain cortex mixed glial cells. It is filed as cell-based. Conditions: vs non-treated, FIG. 4. Here is the method: (§1) The cells were washed with cold Tris-buffered saline (20 mM Trizma base and 137 mM NaCl, pH 7.5) and lysed in 1×SDS sample-loading buffer (62.5 mM Trizma base, 2% [w/v] SDS, 10% glycerol), and after sonication and centrifugation at 15,000 g for 5 min, the supernatant was used for the immunoblot assay. The protein concentration of samples was determined with the detergent compatible protein assay reagent (Bio-Rad) using BSA as the standard. The sample was boiled for 3 min with 0.1 volumes of 10% β mercaptoethanol and 0.5% bromphenol blue mix. Then, 40 μg of total cellular protein was resolved by electrophoresis on 8 or 12% polyacrylamide gels, electrotransferred and blocked with Tween 20-containing Tris-buffered saline (TBST; 10 mM Trizma base, pH 7.4, 1% Tween 20, and 150 mM NaCl) with 5% skim milk. After incubation with antibodies against ABCD2, ABCD3, and (β-actin at 4^0 overnight, the membranes were then washed with TBST and incubated with horseradish peroxidase-conjugated anti-rabbit or mouse IgG for 1 h at room temperature. The membranes were detected by autoradiography using ECL-plus (Amersham Biosciences) after washing with TBST buffer.
The same experimental protocol as in example 4 was performed for ALD-KO mouse brain cortex mixed glial cells. This model is mainly a model for AMN. […]
Background: In western blotting, separated proteins are transferred to a membrane and probed.

Assay [2] relates to ABCD2. Briefly: Western blot of ABCD2 expression in AMN fibroblasts. It is filed as cell-based, human. Conditions: AMN fibroblasts, 5, 10, 25 μM, vs control and untreated AMN fibroblasts; FIG. 2. Here is the method:
More specifically, protein extraction was performed as follows.
as §1
The experiments described in Examples 4 and 6 were performed with metformin by the same lab and described by Singh et al. in Journal of Neurochemistry, 2016; 138, 86-100.

The test system of another assay is ABCD1-KO mice. The assay is described as follows: In vivo X-ALD mouse, 60 days: VLCFA (C26:0) in brain cortex and plasma. As to conditions: male ABCD1-KO mice, 75 mg/kg oral gavage twice a day. Here is the method: Male ABCD1-KO mice (n=15) were treated with oral gavage of PXL770 (75 mg/kg) twice a day, every day for 60 days. Untreated ABCD1-KO mice (n=15) and wild-type (WT) mice (n=12) served as controls. Post-treatment mice were sacrificed and brain cortex and plasma were collected for VLCFA analysis. The analysis was performed according to the standardized protocols of the Lipidomics Core Facility and data are expressed as VLCFA μg/ml levels. Hexacosanoic acid (C26:0) was selected as representative for VLCFAs.
(§2) A one-way ANOVA with Dunnett's multiple comparison test was performed to assess the effect of PXL770 on brain's VLCFAs (**** p<0.0001, *** p<0.001). A Kruskal-Wallis test with Dunn's multiple comparison test was performed to assess the effect of PXL770 on plasma's VLCFAs (**** p<0.0001, […]).

Assay [3] relates to AMN human patient-derived primary fibroblasts. Briefly: Hexacosanoic acid (VLCFA) level in AMN patient-derived fibroblasts, LC-MS. It is filed as cell-based. Here is the method: In order to compare the efficacy of PXL770 and metformin to lower very long chain fatty acids (VLCFA) in vitro, the study focuses on the level assessment of the hexacosanoic acid, which is the most prevalent VLCFA, in healthy control cells and in AMN human patient-derived primary fibroblasts. The cell lines were obtained from Coriell Cell Repositories. Fibroblasts were cultured in DMEM with 15% FBS. The cultures were split in 1:5 ratio. Fibroblasts from healthy patients were used as control. All treatments were in complete media containing fetal bovine serum (FBS, 15%). All cultured cells were maintained at 37° C. in 5% CO2.
VLCFA content was then measured as follows. Samples are adjusted to a final volume of 0.5-1 ml with LC-MS grade water and spiked with 10 ng of Lignoceric acid-d4 as an internal standard. The sample is acidified to pH 3-4 with dilute hydrochloric acid and extracted with isooctane-ethyl acetate (9:1) three times with equal volume. The extract is dried under nitrogen and the residue is reconstituted in methanol-water-ammonium acetate (75:25:10 mM).
Total fatty acids: After preparing the samples with internal standard as described above for free fatty acids, aqueous sodium hydroxide is added to a final concentration of 1 M. The mixture is incubated at 37° C. in dark under nitrogen for 3 h. The samples are then acidified, extracted, and reconstituted as described above.
LC-MS analysis of fatty acids: The reconstituted fatty acid extracts are subjected to HPLC on Targa C8 column (2×10 mm) using methanol-aqueous ammonium acetate (10 mM) solvent mixture. The column is eluted with a gradient of methanol (75 to 90%) over 8 min at a flow rate of 0.25 ml/min. The column eluent is directly introduced to mass analyzer (QTRAP5500) and monitored for fatty acids using published pseudo MRM method. Under these conditions, the VLCFA elute between 5 and 8 min. Each fatty acid is quantitated against the added internal standard.
The study planned different groups of patients. First, the evolution of hexacosanoic acid in fibroblasts is monitored in healthy control cells and in AMN human patient-derived primary fibroblasts; and in a second time a treatment of PXL770 was assigned to AMN human-derived primary fibroblasts in culture at different doses (PXL770: 0.1, 0.5, 1, 2, 3.5 and 5 μM; metformin: 100, 200, 300 and 400 μM) for one week and the level of hexacosanoic acid was measured.
The experiment described in Example 3 was reproduced with various thienopyridone compounds, namely: • PXL770: potassium 2-chloro-3-(5-hydroxytetralin-6-yl)-6-oxo-5-phenyl-7H-thieno[2,3-b]pyridin-4-olate • PXL700: 2-chloro-4-hydroxy-3-indan-5-yl-5-(3-pyridyl)-7H-thieno[2,3-b]pyridin-6-one • PXL702: 2-chloro-4-hydroxy-3-(4-hydroxyindan-5-yl)-5-phenyl-7H-thieno[2,3-b]pyridin-6-one • PXL695: 2-chloro-5-(3-fluorophenyl)-4-hydroxy-3-(4-hydroxyindan-5-yl)-7H-thieno[2,3-b]pyridin-6-one, • each tested at concentrations from 0.1 to 5 μM.
as §2

`O=c1[nH]c2sc(Cl)c(-c3ccc4c(c3O)CCCC4)c2c([O-])c1-c1ccccc1.[K+]` [PXL770, monohydrate potassium salt of 2-chloro-4-hydroxy-3-(5-hydroxytetralin-6-yl)-5-phenyl-7H-thieno[2,3-b]pyridin-6-one]: the “expression of ABCD2 (Western blot)” value in the assay on ABCD2 [1] and in the assay on ABCD2 [2] was “overexpression” each time. Moreover, the “VLCFA accumulation in the brain cortex” value in the assay with ABCD1-KO mice (FIG. 7) is reported as “significantly reduces”. For the same compound, the “VLCFA accumulation in the plasma” value in the assay on ABCD1-KO mice (FIG. 8) was “significantly reduces”. Moreover, the “potency and efficacy compared to metformin” value in assay [3] (AMN fibroblasts, PXL770 0.1-5 μM vs metformin 100-400 μM, one week, FIG. 10) is “much higher potency and efficacy”. Moreover, in assay [3] (AMN fibroblasts, increasing doses 0.1-5 μM, one week, FIG. 10), the “level of hexacosanoic acid” value is reported as “decreases”. Further, the VLCFA levels entry in assay [3] (AMN patient-derived fibroblasts, concentrations from 0.1 to 5 μM, FIG. 14) is “comparable decrease”.

For the origin of these results see patent US11850238B2, “Use of a thienopyridone derivative in the treatment of adrenoleukodystrophy or adrenomyeloneuropathy” (POXEL, priority 2020, dated 2023).
